The values below come from patent US12012403B2, “Aryl sulfonyl compounds as CCR6 inhibitors” (CHEMOCENTRYX, INC., priority 2021, dated 2024).

The structures appear in SMILES notation.

This experiment addresses T1, human CCR6 (Homo sapiens, UniProt P51684).
T1 construct: expressed in transfected cells; host or cells: Ba/F3 cells (murine pro-B line), hCCR6-transfected, CMV promoter, sodium butyrate induction
T1 sequence (P51684 1-374): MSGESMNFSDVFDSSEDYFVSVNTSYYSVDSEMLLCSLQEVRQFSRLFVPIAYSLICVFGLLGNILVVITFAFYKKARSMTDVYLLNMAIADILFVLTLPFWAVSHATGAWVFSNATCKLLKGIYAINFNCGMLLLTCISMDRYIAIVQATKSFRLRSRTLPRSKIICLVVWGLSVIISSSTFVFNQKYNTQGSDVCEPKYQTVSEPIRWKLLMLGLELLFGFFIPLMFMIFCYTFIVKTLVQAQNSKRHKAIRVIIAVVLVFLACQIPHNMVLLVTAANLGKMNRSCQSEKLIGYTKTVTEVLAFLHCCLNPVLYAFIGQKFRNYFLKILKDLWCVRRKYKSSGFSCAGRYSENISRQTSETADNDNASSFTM
In words: Migration (chemotaxis) assay, hCCR6-transfected Ba/F3 cells toward CCL20. The format is cell-based. Conditions: hCCR6-transfected Ba/F3 cells in human serum; recombinant human CCL20 10 nM; 37° C. 45 minutes; read-out: Potency (IC50 value in the migration assay). From the text:
A chemotaxis assay can be used to determine the efficacy of potential receptor antagonists at blocking the migration mediated through chemokine receptors, such as CCR6. This assay is routinely performed using the ChemoTX® microchamber system with a 5-μm pore-sized polycarbonate membrane. Chemokine receptor-expressing cells are required for such an assay. In this case, Ba/F3 cells (Palacios et al., Nature, 309:126, 1984) transfected with the gene for human CCR6 under control of the CMV promotor were used. To begin such an assay, hCCR6-transfected Ba/F3 cells are first grown for 24 hr in medium supplemented with sodium butyrate, which increases CCR6 transcription via the CMV promotor. The prepared Ba/F3 cells, are collected by centrifugation at 400×g at room temperature, then suspended at 4 million/ml in human serum. The compound being tested is serially diluted from a maximum final concentration of 10 μM (or an equivalent volume of its solvent (DMSO)) and is then added to the cell/serum mixture. Separately, recombinant human CCL20 (MIP-3α/LARC) at its EC50 concentration (10 nM) is placed in the lower wells of the ChemoTX® plate. The 5-μm (pore size) polycarbonate membrane is placed onto the plate, and 20 μL of the cell/compound mixture is transferred onto each well of the membrane. The plates are incubated at 37° C. for 45 minutes, after which the polycarbonate membranes are removed and 5 μl of the DNA-intercalating dye CyQUANT (Invitrogen, Carlsbad, CA) is added to the lower wells. The amount of fluorescence, corresponding to the number of migrated cells, is measured using a Spectrafluor Plus plate reader (TECAN, San Jose, CA).
For the molecule `N#Cc1c(N)[nH]c2ccc(-c3ccc(S(=O)(=O)[C@H]4CC[C@H](Nc5ccc(C(F)(F)F)cn5)CC4)cc3)cc12` [Example 1.070], the IC50 was less than 5 nM.

`NC(=O)N1CCC12CN(c1ccc(S(=O)(=O)N3CCC(Nc4ccc(C(F)(F)F)cn4)CC3)cc1)C2` [Example 1.142]: the IC50 was 5 to 100 nM.

For the molecule `N=[S@](=O)(c1ccc(-c2ccc3[nH]cnc3c2)cc1)N1CCC(Nc2ccc(C(F)(F)F)cc2)CC1` [Example 1.104], the IC50 lay in the range of 5 to 100 nM.

In the case of `O=S(=O)(c1ccc(N2CCC(CO)CC2)cc1)N1CCC(Nc2ccc(C(F)(F)F)cn2)CC1` [Example 1.188], the IC50 is 5 to 100 nM.

As for `NC(=O)C(=O)N1CCN(c2ccc(S(=O)(=O)N3CCC(Nc4ccc(C(F)(F)F)cn4)CC3)cc2)CC1` [Example 1.173], the IC50 was in the range of 5 to 100 nM.

Consider `Nc1nc2cc(-c3ccc(S(=O)(=O)N4CCC(Nc5ccc(C(F)(F)F)cn5)CC4)cc3)ccc2[nH]1` [Example 1.107], for which the IC50 was in the range of 5 to 100 nM.

For `NC(=O)c1c[nH]c2ccc(-c3ccc(S(=O)(=O)N4CCC(Nc5ccc(C(F)(F)F)cn5)CC4)cc3)cc12` [Example 1.080], the IC50 lay in the range of 5 to 100 nM.

Consider `CC(=O)NCCC1CCN(c2ccc(S(=O)(=O)N3CCC(Nc4ccc(C(F)(F)F)cn4)CC3)cc2)CC1` [Example 1.126], for which the IC50 lay in the range of 5 to 100 nM.

On to `CC(C)(C)OC(=O)N[C@H]1CCN(c2ccc(S(=O)(=O)N3CCC(Nc4ccc(C(F)(F)F)cn4)CC3)cc2)C1` [Example 1.218], for which the IC50 lay within 100 to 10000 nM.

For the molecule `O=c1[nH]c2ccc(-c3ccc(S(=O)(=O)N4CCC(Nc5ccc(C(F)(F)F)cn5)CC4)cc3)cc2n1C1COC1` [Example 1.041], the IC50 lay within 5 to 100 nM.

`N#Cc1cc2cc(-c3ccc(S(=O)(=O)N4CCC(Nc5ccc(C(F)(F)F)cn5)CC4)cc3)ccc2[nH]1` [Example 1.113]: the IC50 lay in the range of 5 to 100 nM.

For `NC(=O)N[C@H]1CCCN(c2ccc(S(=O)(=O)N3CCC(Nc4ccc(C(F)(F)F)cn4)CC3)cc2)C1` [Example 1.191], the IC50 lay within 100 to 10000 nM.

For the molecule `N#Cc1cc2ccc(-c3ccc(S(=O)(=O)N4CCC(Nc5ccc(C(F)(F)F)cn5)CC4)cc3)cc2[nH]1` [Example 1.079], the IC50 is 5 to 100 nM.

For `O=S(=O)(c1ccc(-c2cnc3[nH]ccc3c2F)cc1)N1CCC(Nc2ccc(C(F)(F)F)cn2)CC1` [Example 1.030], the IC50 was less than 5 nM.

Turning to `O=C1NCCc2ccc(-c3ccc(S(=O)(=O)N4CCC(Nc5ccc(C(F)(F)F)cn5)CC4)cc3)cc21` [Example 1.066], the IC50 was less than 5 nM.

Regarding `COC(=O)c1cc(-c2ccc(S(=O)(=O)N3CCC(Nc4ccc(C(F)(F)F)cn4)CC3)cc2)cc2c1NC(=O)C2` [Example 1.027], the IC50 was less than 5 nM.

For `NC(=O)N1CCN(c2ccc(S(=O)(=O)N3CCC(Nc4ccc(C(F)(F)F)cn4)CC3)cc2)CC1` [Example 1.204], the IC50 is 5 to 100 nM.

Consider `N=[S@](=O)(c1ccc(-c2ccc3oc(N)nc3c2)cc1)N1CCC(Nc2ccc(C(F)(F)F)cn2)CC1` [Example 1.116], for which the IC50 lay within 5 to 100 nM.

For the molecule `CC(C)(C)OC(=O)N1CC=C(c2ccc(S(=O)(=O)N3CCC(Nc4ccc(C(F)(F)F)cn4)CC3)cc2)CC1` [Example 1.234], the IC50 lay in the range of 5 to 100 nM.

As to `CC(=O)NC1CC2(C1)CN(c1ccc(S(=O)(=O)N3CCC(Nc4ccc(C(F)(F)F)cn4)CC3)cc1)C2` [Example 1.163], the IC50 lay in the range of 5 to 100 nM.

As to `CC1(C)Oc2ccc(-c3ccc(S(=O)(=O)N4CCC(Nc5ccc(C(F)(F)F)cn5)CC4)cc3)cc2NC1=O` [Example 1.031], the IC50 is 5 to 100 nM.

Regarding `NC(=O)N1CC2(C1)CN(c1ccc(S(=O)(=O)N3CCC(Nc4ccc(C(F)(F)F)cn4)CC3)cc1)C2` [Example 1.154], the IC50 was less than 5 nM.

Take `O=C1NC2(CCN(c3ccc(S(=O)(=O)N4CCC(Nc5ccc(C(F)(F)F)cn5)CC4)cc3)CC2)CO1` [Example 1.148]: the IC50 was less than 5 nM.

For the molecule `O=C1Cc2ccc(-c3ccc(S(=O)(=O)N4CCC(Nc5ccc(C(F)(F)F)cn5)CC4)cc3)cc2CN1` [Example 1.007], the IC50 fell in the range of 5 to 100 nM.

For the molecule `O=C1COc2cc(-c3ccc(S(=O)(=O)N4CCC(Nc5ccc(C(F)(F)F)cn5)CC4)cc3)ccc2N1` [Example 1.074], the IC50 is 5 to 100 nM.

With `O=c1[nH]ncc2cc(-c3ccc(S(=O)(=O)N4CCC(Nc5ccc(C(F)(F)F)cn5)CC4)cc3)ccc12` [Example 1.059], the IC50 was less than 5 nM.

In the case of `NC(=O)N1CCCC(c2ccc(S(=O)(=O)N3CCC(Nc4ccc(C(F)(F)F)cn4)CC3)cc2)C1` (stereo not drawn) [Example 1.215], the IC50 is 5 to 100 nM.

Turning to `O=C1NCCc2cc(-c3ccc(S(=O)(=O)N4CCC(Nc5ccc(C(F)(F)F)cn5)CC4)cc3)ccc21` [Example 1.075], the IC50 is less than 5 nM.

On to `O=S(=O)(c1ccc(N2CCN(c3nnc[nH]3)CC2)cc1)N1CCC(Nc2ccc(C(F)(F)F)cn2)CC1` [Example 1.174], for which the IC50 was in the range of 100 to 10000 nM.

On to `O=C1NCc2ncc(-c3ccc(S(=O)(=O)N4CCC(Nc5ccc(C(F)(F)F)cn5)CC4)cc3)cc21` [Example 1.010], for which the IC50 lay within 5 to 100 nM.

Regarding `O=S(=O)(c1ccc(N2CCC(O)CC2)cc1)N1CCC(Nc2ccc(C(F)(F)F)cn2)CC1` [Example 1.156], the IC50 was in the range of 5 to 100 nM.

Take `O=S(=O)(c1ccc(N2CCC(c3ccn[nH]3)CC2)cc1)N1CCC(Nc2ccc(C(F)(F)F)cn2)CC1` [Example 1.222]: the IC50 was in the range of 5 to 100 nM.

Regarding `O=S(=O)(c1ccc(N2CCC3(CC2)CC(O)C3)cc1)N1CCC(Nc2ccc(C(F)(F)F)cn2)CC1` [Example 1.158], the IC50 was in the range of 5 to 100 nM.

Take `CS(=O)(=O)NC1CC2(C1)CN(c1ccc(S(=O)(=O)N3CCC(Nc4ccc(C(F)(F)F)cn4)CC3)cc1)C2` [Example 1.161]: the IC50 is 5 to 100 nM.

In the case of `O=C1c2cc(-c3ccc(S(=O)(=O)N4CCC(Nc5ccc(C(F)(F)F)cn5)CC4)cc3)ccc2CN1CCO` [Example 1.033], the IC50 is less than 5 nM.

Regarding `O=S(=O)(c1ccc(N2CC[C@H](O)C2)cc1)N1CCC(Nc2ccc(C(F)(F)F)cn2)CC1` [Example 1.197], the IC50 was in the range of 100 to 10000 nM.

With `NCCC1CCN(c2ccc(S(=O)(=O)N3CCC(Nc4ccc(C(F)(F)F)cn4)CC3)cc2)CC1` [Example 1.132], the IC50 lay in the range of 100 to 10000 nM.

As to `O=C1NCC2(CCN(c3ccc(S(=O)(=O)N4CCC(Nc5ccc(C(F)(F)F)cn5)CC4)cc3)CC2)N1` [Example 1.150], the IC50 is 5 to 100 nM.

For the molecule `O=C1Cc2cc(-c3ccc(S(=O)(=O)N4CCC(Nc5ccc(C(F)(F)F)cn5)CC4)cc3)ccc2CN1` [Example 1.012], the IC50 was less than 5 nM.

Take `NC(=O)C1(C2CCN(c3ccc(S(=O)(=O)N4CCC(Nc5ccc(C(F)(F)F)cn5)CC4)cc3)CC2)CC1` [Example 1.124]: the IC50 lay within 5 to 100 nM.

Consider `O=C1NS(=O)(=O)c2ccc(-c3ccc(S(=O)(=O)N4CCC(Nc5ccc(C(F)(F)F)cn5)CC4)cc3)cc21` [Example 1.063], for which the IC50 lay in the range of 5 to 100 nM.

With `O=C1Cc2cc(-c3ccc(S(=O)(=O)N4CCC(Nc5ccc(C(F)(F)F)cn5)CC4)cc3)cnc2N1` [Example 1.073], the IC50 is less than 5 nM.

Consider `NC(=O)NCCC1CCN(c2ccc(S(=O)(=O)N3CCC(Nc4ccc(C(F)(F)F)cn4)CC3)cc2)CC1` [Example 1.125], for which the IC50 was 5 to 100 nM.

With `CC(=O)N1CCN(c2ccc(S(=O)(=O)N3CCC(Nc4ccc(C(F)(F)F)cn4)CC3)cc2)CC1` [Example 1.226], the IC50 lay within 5 to 100 nM.

For the molecule `O=C1Cc2cc(-c3ccc(S(=O)(=O)N4CCC(Nc5ccc(C(F)(F)F)cn5)CC4)cc3)ncc2N1` [Example 1.043], the IC50 is 100 to 10000 nM.

Regarding `Nc1nnc2ccc(-c3ccc(S(=O)(=O)N4CCC(Nc5ccc(C(F)(F)F)cn5)CC4)cc3)cn12` [Example 1.016], the IC50 is less than 5 nM.

`O=S(=O)(c1ccc(-c2ccnc3[nH]ccc23)cc1)N1CCC(Nc2ccc(C(F)(F)F)cn2)CC1` [Example 1.083]: the IC50 fell in the range of 5 to 100 nM.

Consider `NS(=O)(=O)C1CCN(c2ccc(S(=O)(=O)N3CCC(Nc4ccc(C(F)(F)F)cn4)CC3)cc2)CC1` [Example 1.189], for which the IC50 is 100 to 10000 nM.

Regarding `O=C1NCCCC12CCN(c1ccc(S(=O)(=O)N3CCC(Nc4ccc(C(F)(F)F)cn4)CC3)cc1)CC2` [Example 1.165], the IC50 was less than 5 nM.

Consider `O=S(=O)(c1ccc(N2[C@@H]3CC[C@H]2C[C@@H](O)C3)cc1)N1CCC(Nc2ccc(C(F)(F)F)cn2)CC1` [Example 1.180], for which the IC50 fell in the range of 5 to 100 nM.

Regarding `CC(C)(C(N)=O)C1CCN(c2ccc(S(=O)(=O)N3CCC(Nc4ccc(C(F)(F)F)cn4)CC3)cc2)CC1` [Example 1.123], the IC50 is 5 to 100 nM.
